Measured values reported in US20240083946A1, “SELF-ASSEMBLING PEPTIDES, NANOFIBERS, AND METHODS OF USE” (The Board of Regents of the University of Oklahoma, priority 2021, published 2024).

Test system: OVCAR-8 ovarian cancer cells
Experiment: Toxicity of peptide sets and individual peptides to OVCAR-8 cells (relative ATP, live/dead imaging)
Assay type: cell-based
Conditions: 6 hours, FIGS. 6A-B
Protocol: Image analysis indicated green cells were living and red cells were dead (color not shown).
Incubation of the peptides with OVCAR-8 ovarian cancer cells were incubated with the peptides of the [AA], [II], [WW] peptide sets. […] Red fluorescence (ethidium homodimer-1) was associated with loss of plasma membrane integrity whereas the green fluorescence correlated with intracellular esterase activity of metabolically active cells (color not shown in figures). Pyroptosis is a newly identified cell death modality characterized by the formation of large bubbles on the plasma membrane and cell swelling. Recently pyroptosis has been classified as a regulated cell death (RCD) by Nomenclature Committee on Cell Death (NCCD). Peptide-treated OVCAR-8 cells indicated pyroptotic morphology. One of the pathways mediating pyroptosis is through cleavage of caspase-3.

KFFWWK was tested, and the “toxicity to OVCAR-8 cells” value was “toxicity”.
